Test results taken from patent publication US20230000842A1, “METHODS OF TREATING CARTILAGE DISORDERS THROUGH INHIBITION OF CLK AND DYRK” (SAMUMED, LLC, priority 2019, published 2023).

Columns and labels:
[1] = test system: primary human mesenchymal stem cells (hMSCs); assay: Chondrogenesis screening using primary human mesenchymal stem cells; format: cell-based; details: Homo sapiens, Mesenchymal stem cells, hMSC chondrogenesis; for EC50: concentration required to induce 50% levels of chondrogenesis with TGF-β3 as positive control, read-out: Conc (nM) of 50% TGF-β3 activity; for Emax: maximum activity relative to TGF-β3 (10 ng/mL) positive control, read-out: Max. Activity as % TGF-β3 activity
Excerpt: Representative compounds were screened using primary human mesenchymal stem cells (hMSCs) to determine their ability to induce chondrogenesis (process by which cartilage is developed).
Human Mesenchymal Stem Cell Culture: Primary human mesenchymal stem cells (hMSCs) were purchased from Lonza (Walkersville, Md.) and expanded in Mesenchymal Stem Cell Growth Media (Lonza). Cells between passage 3 and 6 were used for the experiments.
Area of nodules in each well was normalized to the average of 3 DMSO treated wells on the same plate using Excel (Microsoft Inc.). The normalized averages (fold change over DMSO) of 2 or 3 replicate wells for each compound concentration were calculated. Due to solubility limitations of some of the compounds, curve fitting was incomplete leading to inaccurate EC50 determinations.
Using TGF-β3 as a positive control, the concentration of representative compounds required to induce 50% levels of chondrogenesis is reported. In addition, the maximum activity of each compound and the respective dose that each compound reached maximum chondrogenesis activity is reported.

[2] = target: CLK2 kinase (Homo sapiens, UniProt P49760); assay: CLK2 kinase activity assay (Z-lyte FRET); format: biochemical; details: Z-lyte Ser/Thr 6 peptide, 60 μM ATP, 1 h at room temperature;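 also: FRET read-out as coumarin to fluorescein emission ratio, unphosphorylated peptide as 0% and phosphorylated peptide as 100% controls, duplicate reactions, non-linear regression fit of dose-response curves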
CLK2 kinase, sequence (P49760 whole entry): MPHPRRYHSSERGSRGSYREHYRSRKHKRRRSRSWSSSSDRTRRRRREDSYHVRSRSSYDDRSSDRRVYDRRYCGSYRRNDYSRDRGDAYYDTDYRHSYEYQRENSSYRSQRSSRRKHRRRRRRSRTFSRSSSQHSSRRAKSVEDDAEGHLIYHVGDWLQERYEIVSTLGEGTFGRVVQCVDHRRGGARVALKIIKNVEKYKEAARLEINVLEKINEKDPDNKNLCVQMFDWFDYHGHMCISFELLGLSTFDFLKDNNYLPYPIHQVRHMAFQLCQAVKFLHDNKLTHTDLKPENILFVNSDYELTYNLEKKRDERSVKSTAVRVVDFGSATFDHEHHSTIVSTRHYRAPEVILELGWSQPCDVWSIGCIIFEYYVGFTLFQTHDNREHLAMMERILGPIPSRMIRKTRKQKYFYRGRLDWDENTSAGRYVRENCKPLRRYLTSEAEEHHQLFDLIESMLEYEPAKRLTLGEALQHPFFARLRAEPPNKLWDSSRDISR

[3] = target: CLK3 kinase (Homo sapiens, UniProt P49761); assay: CLK3 kinase activity assay (Z-lyte FRET); format: biochemical; details: Z-lyte Ser/Thr 18 peptide, 156 μM ATP, 1 h at room temperature;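 also: kinase activity read as coumarin/fluorescein emission ratio by FRET, unphosphorylated peptide as 0% and phosphorylated peptide as 100% control, values from non-linear regression of dose-response curves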
CLK3 kinase, sequence (P49761 whole entry): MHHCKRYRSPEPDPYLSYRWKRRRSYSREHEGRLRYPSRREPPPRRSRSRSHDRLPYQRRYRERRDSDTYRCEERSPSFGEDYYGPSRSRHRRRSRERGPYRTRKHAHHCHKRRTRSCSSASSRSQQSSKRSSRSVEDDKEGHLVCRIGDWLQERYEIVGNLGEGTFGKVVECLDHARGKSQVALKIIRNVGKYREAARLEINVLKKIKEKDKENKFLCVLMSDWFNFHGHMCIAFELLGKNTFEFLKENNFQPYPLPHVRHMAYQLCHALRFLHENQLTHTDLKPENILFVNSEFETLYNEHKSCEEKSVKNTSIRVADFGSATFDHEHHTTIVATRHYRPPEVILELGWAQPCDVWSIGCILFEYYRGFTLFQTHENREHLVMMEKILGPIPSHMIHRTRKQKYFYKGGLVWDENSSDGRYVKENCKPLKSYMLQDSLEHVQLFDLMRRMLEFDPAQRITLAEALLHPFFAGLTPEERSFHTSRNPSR
Protocol: This is a non-radioactive assay using fluorescence resonance energy transfer (FRET) between coumarin and fluorescein to detect kinase activity which is represented as a ratio of coumarin emission/fluorescein emission.
The mixture was allowed to incubate with the representative compounds for one hour at room temperature. All reactions were performed in duplicate. Unphosphorylated (“0% Control”) and phosphorylated (“100% control”) forms of Ser/Thr 18 served as control reactions. Additionally, an 11-point dose-response curve of Staurosporine (1 μM top) was run to serve as a positive compound control.
After incubation, Development Reagent A was diluted in Development Buffer then added to the reaction and allowed to further incubate for one hour at room temperature.
Dose-response curves were generated and inhibitory concentration (IC50) values were calculated using non-linear regression curve fit in the Dotmatics' Studies Software (Bishops Stortford, UK).

[4] = test system: Wnt pathway activity (SW480 colon carcinoma cells stably expressing the Sp5-Luc reporter); assay: Wnt pathway activity screening assay (Sp5-Luc reporter gene assay); details: Homo sapiens, SW480, Table 4; SW480 cells stably expressing Sp5-Luc reporter, 10-point dose-response from 10 μM, 36 to 48 hours

| SMILES | EC50 [1] [nM] | Emax [1] [%] | EC50 [2] [nM] | EC50 [3] [nM] | EC50 [4] [nM] |
| --- | --- | --- | --- | --- | --- |
| COc1cncc(C(=O)Nc2c[nH]nc2C(=O)Nc2ccc(OCCN3CCCC3)nc2)c1 [compound 5] | 10 | 106 | 20 | 4930 | 22.3 |
| COc1cncc(C(=O)Nc2c[nH]nc2C(=O)Nc2ccc(N3CCNCC3)nc2)c1 [compound 7] | – | 90.7 | 14 | 2360 | 681 |
| Cc1n[nH]c2ccc(-c3cncc(OC[C@H](N)Cc4ccccc4)n3)cc12 [compound 52] | 30 | 52.1 | 2 | 361 | 253 |
| Cc1cc2[nH]nc(C(=O)Nc3ccc(CN4CCCC4)cc3)c2cc1-c1cccnc1 [compound 60] | – | – | 2 | 581 | 1090 |
| CN1CCN(Cc2ccc(NC(=O)c3n[nH]c4ccc(-c5cccnc5)cc34)cn2)CC1 [compound 62] | – | – | 1 | 34 | 37 |
| O=C(Nc1cnccc1NC(=O)C1CC1)c1n[nH]c2ccc(-c3cccnc3)cc12 [compound 63] | – | – | 1 | 343 | 68 |
| O=C(Nc1ccnnc1)c1n[nH]c2ccc(-c3cccnc3)cc12 [compound 64] | – | – | 1 | 21 | 106 |
| CN(C)Cc1cncc(NC(=O)c2n[nH]c3ccc(-c4cncc(CN5CCCC5)c4)cc23)c1 [compound 70] | – | – | 1 | 36 | 330 |
| COc1ccc(NC(=O)c2n[nH]c3ccc(-c4cncc(CN5CCCC5)c4)cc23)cn1 [compound 71] | 30 | 63.1 | 2 | 109 | 50 |
| COc1ccc(NC(=O)c2n[nH]c3ccc(-c4cncc(CN5CCC(F)(F)C5)c4)cc23)cn1 [compound 72] | 100 | 72.2 | 2 | 22 | 5 |
| CN1CCN(c2ccc(NC(=O)c3n[nH]c4ccc(-c5cncc(CN6CCC(F)(F)C6)c5)cc34)cn2)CC1 [compound 73] | 30 | 80.9 | 1 | 11 | 4 |
| Cc1ccc(NC(=O)c2n[nH]c3ccc(-c4cncc(CN5CCCCC5)c4)cc23)cn1 [compound 78] | 30 | 102 | 1 | 44 | 57 |
| Cc1cncc(NC(=O)c2n[nH]c3ccc(-c4cncc(CN5CCCCC5)c4)cc23)c1 [compound 79] | 300 | 68.3 | 1 | 352 | 59 |
| O=C(Nc1ccnc(C(F)(F)F)c1)c1n[nH]c2ccc(-c3cncc(CN4CCCCC4)c3)cc12 [compound 80] | 100 | 69 | 3 | 93 | 36.4 |
| COc1ccc(NC(=O)c2n[nH]c3ccc(-c4cncc(CN5CCCCC5)c4)cc23)cn1 [compound 81] | 300 | 138 | 1 | 32 | 15 |
| CC(C)Oc1ccc(NC(=O)c2n[nH]c3ccc(-c4cncc(CN5CCCCC5)c4)cc23)cn1 [compound 82] | 10 | 51.9 | 13 | 616 | 41 |
| CN(C)CCN(C)c1ccc(NC(=O)c2n[nH]c3ccc(-c4cncc(CN5CCCCC5)c4)cc23)cn1 [compound 84] | – | – | 1 | 14 | 65 |
| CC(C)CC(=O)Nc1ccncc1NC(=O)c1n[nH]c2ccc(-c3cncc(CN4CCCCC4)c3)cc12 [compound 85] | – | 45.4 | 7 | 1800 | 25 |

| SMILES | EC50 [1] [nM] | Emax [1] [%] | EC50 [2] [nM] | EC50 [3] [nM] | EC50 [4] [nM] |
| --- | --- | --- | --- | --- | --- |
| O=C(Nc1cnccc1NC(=O)C1CC1)c1n[nH]c2ccc(-c3cncc(CN4CCCCC4)c3)cc12 [compound 86] | 30 | 53.7 | 3 | 1270 | 120 |
| O=C(Nc1ccc(N2CCC(O)CC2)nc1)c1n[nH]c2ccc(-c3cncc(CN4CCCCC4)c3)cc12 [compound 91] | – | – | 1 | 22 | 49 |
| C[C@@H]1CN(c2ccc(NC(=O)c3n[nH]c4ccc(-c5cncc(CN6CCCCC6)c5)cc34)cn2)C[C@H](C)O1 [compound 92] | 2700 | 129 | 1 | 89 | 2.8 |
| O=C(Nc1ccc(-c2ccccc2)nc1)c1n[nH]c2ccc(-c3cncc(CN4CCCCC4)c3)cc12 [compound 93] | – | – | 5 | 71 | 101 |
| O=C(Nc1ccnnc1)c1n[nH]c2ccc(-c3cncc(CN4CCCCC4)c3)cc12 [compound 94] | – | – | 1 | 11 | 40 |
| O=C(Nc1cnccn1)c1n[nH]c2ccc(-c3cncc(CN4CCCCC4)c3)cc12 [compound 95] | – | – | 1 | 46 | 289 |
| O=C(Nc1ccc2c(c1)OCCO2)c1n[nH]c2ccc(-c3cncc(CN4CCCCC4)c3)cc12 [compound 97] | – | – | 1 | 60 | 125 |
| CC1CCN(Cc2cncc(-c3ccc4[nH]nc(C(=O)Nc5cccnc5)c4c3)c2)CC1 [compound 98] | 30 | 94.4 | 1 | 86 | 7 |
| Cc1ncc(NC(=O)c2n[nH]c3ccc(-c4cnc(C)n4C)cc23)s1 [compound 115] | – | – | 1 | 99 | 335 |
| O=C(Nc1nc2c(-c3cccc(F)c3)cncc2[nH]1)c1n[nH]c2ccc(-c3cccnc3)cc12 [compound 119] | 100 | 157 | 5 | 48 | 6 |
| CN(C)CCOc1cncc(-c2cnc3[nH]nc(-c4nc5c(-c6cccc(F)c6)nccc5[nH]4)c3c2)c1 [compound 151] | – | – | 1 | 55 | 253 |
| CC(C)CC(=O)Nc1cncc(-c2ccc3[nH]nc(-c4nc5c(N6CCN(C)CC6)cccc5[nH]4)c3c2)c1 [compound 217] | – | – | 3 | 40 | 268 |
| Nc1cncc(-c2ccc3[nH]nc(-c4cc5c(-c6cccnc6)nccc5[nH]4)c3c2)c1 [compound 347] | – | – | 2 | 18 | 146 |
| CN1CCC(n2cc(C(=O)Nc3cc4cc(-c5cnn(C)c5)ccc4cn3)cn2)CC1 [compound 561] | – | – | 1 | 6 | 14 |
| CC(C)Nc1cncc(-c2ccc3cnc(NC(=O)C4CCN(CCF)CC4)cc3c2)n1 [compound 598] | – | – | 8 | 52 | 178 |
| O=C(Nc1cc2cc(-c3cncc(NC4CCNCC4)n3)ccc2cn1)C1CC(F)(F)C1 [compound 600] | – | – | 3 | 78 | 381 |
| O=C(Nc1cc2cc(-c3cncc(NCC4(F)CNC4)n3)ncc2cn1)C1CC1 [compound 615] | – | – | 7 | 53 | 383 |
| CNc1nc(NCc2ncccn2)c2c(-c3ccc4ncccc4c3)c[nH]c2n1 [compound 624] | – | – | 10 | 26 | 73.3 |
